For one experiment, the system named is cerebral blood flow. The experiment can be described thus: Cerebral blood flow by laser-Doppler in mouse cerebral infarction model. Format: in vivo. As to conditions: mean ± SE, n=3. The method, then: The improvement effectiveness of SMTP-7 and alteplase on the cerebral blood flow was compared using the mouse cerebral infarction model.
SMTP-7 and alteplase were prepared as in Example 2. SMTP-7 and alteplase were administered in an amount of 10 mg/kg into the femoral vein 1 hour after the initiation of ischemia in a mouse cerebral infarction model, wherein 10% was administered by a bolus administration, and the rest by continuous administration over 30 min. Three mice were used for each condition.
The cerebral blood flow was measured at 6 time points, namely before the initiation of ischemia, immediately after the initiation of ischemia, and after the completion of the drug administration 0 hour (immediately after the completion), 1 hour, 3 hours, and 24 hours.
The cerebral blood flow measurement was conducted by cutting the head skin of a mouse to expose the cranial bone, and measuring the blood flow of the whole brain surfaces by a laser-Doppler apparatus (moorFLPI, Moor Instruments Ltd, UK). The analysis was conducted using moorFLPI (Version 2.1) by rating percentage (%) relative to the value before the initiation of ischemia of each group.

The test system of another experiment is plasmin/α2-antiplasmin. The experiment can be described thus: Plasmin activity by fibrinogen zymography of plasma, mouse cerebral infarction model. Format: in vivo. As to conditions: 10 mg/kg 1 hour after ischemia, mean ± SE, n=6. The method, then: The quantity of plasmin/α2-antiplasmin in plasma was measured by a fibrinogen zymography method for evaluating the plasmin activity, when a triprenyl phenol compound was administered to a mouse cerebral infarction model. As triprenyl phenol compounds, SMTP-7, SMTP-6, SMTP-22, SMTP-25, SMTP-43, and SMTP-44D were used.
The triprenyl phenol compounds were prepared same as in Example 2 and Example 5. The administration of 10 mg/kg of a triprenyl phenol compound was initiated 1 hour after the initiation of ischemia. The administration method was same as Example 3. Six mice were used for each condition.
A blood sample was taken according to the following method at 3 time points, namely after the completion of the administration 0 hour (immediately after the completion), 1 hour, and 3 hours. Under anesthesia with 1 to 1.5% isoflurane, the […] and 90 μL of blood was withdrawn from the abdominal vena cava into a syringe containing 10 μL of sodium citrate (3.8%) (sodium citrate:blood=1:9, final concentration of sodium citrate 0.38%).
After collection the blood was centrifuged (5000 rpm, 15 min, 4° C.) to separate plasma. A part of the plasma was mixed with equal quantity of a sample buffer (125 mM Tris-HCl (pH 6.8), 4% (w/v) SDS, 0.04% (w/v) bromophenol blue, 20% (w/v) sucrose), which was then divided into small fractions, and cryopreserved.
A part of the plasma was reserved and diluted 300-fold with 0.1 N NaOH and the protein content was determined by the Bradford method in order to even out the protein mass to be applied to an electrophoresis gel.
As the standard sample, a sample was prepared by reacting 10 μL of 120 nM plasmin (by SIGMA) and 10 μL of 600 nM α2-antiplasmin (by Wako Pure Chemical Industries, Ltd.) at 37° C. for 30 min, and mixing the same with 20 μL of the sample buffer.
An electrophoresis gel was prepared by overlaying a stacking gel on a 7.5% running gel containing 2 mg/mL fibrinogen (by SIGMA). Based on the determined protein mass, 3 to 15 μL of the sample was applied, so that the equal amount of protein was applied.
After electrophoresis at 10 mA/sheet, for 3 hours the stacking gel was removed and rinsed for 30 min twice with about 100 mL/gel of a rinse liquid (2.5% Triton X-100). After rinsing, incubation was carried out at 37° C. for 24 to 60 hours under gentle shaking with about 100 mL/sheet of an incubation buffer (0.1 M glycine-50 mM Tris-HCl, pH 8.3 at 37° C.).
Thereafter the gel was stained by a stain solution (0.075% CBB 8250, 22.5% methanol, 2.25% sulfosalicylic acid dihydrate, 7.5% trichloroacetic acid) at room temperature for 15 to 30 min with gentle shaking. Removing the stain solution, the gel was decolored by a decoloring solution (methanol:acetic acid:water=1:1:6), which was replaced with water at an appropriate time point according to appearance of bands observed.
The image on the gel was read in by an imaging analyzer (Printgraph (AE-6933FXCF), by ATTO) and the band intensity was evaluated. The results are expressed as a ratio to the value of the control group at 0 hour after the completion of the administration (immediately after the completion).

The nature of experiment [1]: H-ORAC (hydrophilic oxygen radical absorbance capacity) assay. Format: biochemical. As to conditions: sodium salt aqueous solution, phosphate buffer pH 7.4. The method, then:
To study the free radical scavenging activity of a triprenyl phenol compound, the following H-ORAC (hydrophilic oxygen radical absorbance capacity) assay, and modified H-ORAC (mH-ORAC) assay were conducted.
SMTP compounds evaluated by H-ORAC were used respectively in a form of a sodium salt aqueous solution, and the compounds evaluated by mH-ORAC were used respectively in a form of an acetone solution.
In H-ORAC a test compound was diluted appropriately with a buffer solution (75 mM phosphate buffer solution, pH 7.4) and used for measurement. In mH-ORAC a test compound was diluted appropriately by a 50% (v/v) acetone solution, prepared by diluting an acetone solution with water, to prepare a solution of 40-fold the final concentration. […] As for the reference material Trolox, 500 μM/buffer solution was diluted appropriately with a buffer solution.
To a 96-well microplate (transparent, flat bottom, black wall) 50 μL of a test compound solution or a Trolox solution was placed, and additionally 100 μL of a fluorescein 140 nM/buffer solution as a fluorescent substance was added (final concentration 70 nM), followed by incubation at 37° C. for […].
As a free radical generator, 50 μL of a 48 mM/buffer solution of 2,2′-azobis(amidinopropane)dihydrochloride was added (final concentration 12 mM), and fluorescence intensity at fluorescence wavelength of 535 nm with excitation wavelength of 485 nm was measured at 2 min intervals for 90 min. The calibration curve was prepared between the Trolox final concentrations of 5 to 15 μM. The measurement was conducted by changing the concentration with n=3, and plotted on a diagram with time on the abscissa and the fluorescence intensity on the ordinate. Therewith evaluation was made using the value obtained by reducing the area under the curve for the blank from the area under the curve for the sample. The result was expressed as an equivalent to Trolox.

[2] abbreviates: 10 mg/kg 1 hour after ischemia, 0 hr after completion of administration.
Setting [3] is: 10 mg/kg 1 hour after ischemia, 1 hr after completion of administration.
Setting [4] is: 10 mg/kg 1 hour after ischemia, 3 hr after completion of administration.
The mark [5] stands for this setting: 10 mg/kg 1 hour after ischemia, 24 hr after completion of administration.
[6] abbreviates: immediately after initiation of ischemia (before drug administration), group later given 10 mg/kg.
Setting [7] is: plasma 0 hr after completion of administration.
The mark [8] stands for this setting: plasma 1 hr after completion of administration.
[9] abbreviates: plasma 3 hr after completion of administration.

With alteplase [reference compound], the “cerebral blood flow relative to the value before the initiation of ischemia” value with cerebral blood flow (setting [2]) is on record as 56.45 ± 14.70%; in the experiment on cerebral blood flow (setting [3]) it was 73.49 ± 20.33%; with cerebral blood flow (setting [4]), 66.83 ± 11.10%; with cerebral blood flow (setting [5]), 71.63 ± 6.06%; in the experiment on cerebral blood flow (setting [6]), 27.30 ± 2.35%.

Take `CC(C)=CCC/C(C)=C/CC[C@@]1(C)Oc2c(c(O)cc3c2CN(CCC[C@@H](C(=O)O)N2Cc4c(cc(O)c5c4O[C@](C)(CC/C=C(\C)CCC=C(C)C)[C@@H](O)C5)C2=O)C3=O)C[C@@H]1O` [SMTP-7]: the “plasmin activity (plasmin/α2-antiplasmin band intensity), ratio to control group at 0 hour” value in the experiment on plasmin/α2-antiplasmin (setting [7]) is given as 1.49 ± 0.13; with plasmin/α2-antiplasmin (setting [8]), 3.23 ± 0.47; in the experiment with plasmin/α2-antiplasmin (setting [9]) it was 3.27 ± 0.67. Also, the “cerebral blood flow relative to the value before the initiation of ischemia” value is 43.74 ± 12.67% in the experiment with cerebral blood flow (setting [2]); 44.48 ± 12.59% in the experiment with cerebral blood flow (setting [3]); 48.90 ± 15.89% in the experiment with cerebral blood flow (setting [4]); 76.01 ± 9.71% in the experiment on cerebral blood flow (setting [5]); 34.17 ± 5.22% in the experiment on cerebral blood flow (setting [6]). The “free radical scavenging activity, Trolox equivalent” value in experiment [1] stood at 2.08 ± 0.13 molTE/mol.

For the compound `CC(C)=CCC/C(C)=C/CCC1(C)Oc2c(c(O)cc3c2CN(C(Cc2c[nH]c4ccccc24)C(=O)O)C3=O)CC1O` (stereo not drawn) [SMTP-6], the “plasmin activity (plasmin/α2-antiplasmin band intensity), ratio to control group at 0 hour” value in the experiment with plasmin/α2-antiplasmin (setting [7]) worked out at 1.08 ± 0.12; in the experiment on plasmin/α2-antiplasmin (setting [8]), 1.17 ± 0.14; in the experiment on plasmin/α2-antiplasmin (setting [9]), 1.68 ± 0.10. In addition, the “free radical scavenging activity, Trolox equivalent” value in experiment [1] is 3.73 ± 0.42 molTE/mol.

(Values after USRE49351E1, “Cytoprotective agent” (Biogen MA Inc., priority 2009, dated 2023).)
